Patent US11072811B2, “Substrates for covalent tethering of proteins to functional groups or solid surfaces” (PROMEGA CORPORATION, priority 2013, dated 2021)
Entries after “also recorded” stand apart in the source; their conditions may differ.

What was measured:
[1] = target: T1, glucocorticoid receptor (GR) (Homo sapiens, UniProt P04150); experiment: Glucocorticoid receptor competitor assay (fluorescence polarization); assay type: binding; conditions: dexamethasone-chloroalkane conjugates; FIG. 7
T1 construct: purchased Life Technology
T1 sequence (P04150 1-777): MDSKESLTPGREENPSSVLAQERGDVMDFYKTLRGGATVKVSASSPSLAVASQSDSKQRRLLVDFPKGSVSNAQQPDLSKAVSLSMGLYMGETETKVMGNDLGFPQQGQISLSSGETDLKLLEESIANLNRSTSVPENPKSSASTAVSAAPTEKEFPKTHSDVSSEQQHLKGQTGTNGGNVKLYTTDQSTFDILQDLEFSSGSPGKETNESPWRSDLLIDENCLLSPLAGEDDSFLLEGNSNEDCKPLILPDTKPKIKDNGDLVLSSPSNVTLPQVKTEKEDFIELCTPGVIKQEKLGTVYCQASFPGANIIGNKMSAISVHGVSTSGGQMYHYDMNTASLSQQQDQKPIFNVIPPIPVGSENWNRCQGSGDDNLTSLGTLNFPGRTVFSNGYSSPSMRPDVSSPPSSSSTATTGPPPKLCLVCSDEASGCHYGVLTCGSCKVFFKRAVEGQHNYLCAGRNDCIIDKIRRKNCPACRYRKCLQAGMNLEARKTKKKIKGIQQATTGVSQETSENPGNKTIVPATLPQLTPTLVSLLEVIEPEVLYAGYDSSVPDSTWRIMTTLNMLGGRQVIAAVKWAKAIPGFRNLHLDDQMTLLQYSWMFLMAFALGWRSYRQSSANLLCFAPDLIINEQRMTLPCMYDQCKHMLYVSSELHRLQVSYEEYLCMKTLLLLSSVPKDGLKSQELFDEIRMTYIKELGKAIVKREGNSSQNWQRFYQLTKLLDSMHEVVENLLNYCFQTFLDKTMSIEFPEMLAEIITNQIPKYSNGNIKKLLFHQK
From the text: c) Binding efficiency to the target glucocorticoid receptor (GR) was done using the glucocorticoid receptor competitor assay (Life Technology) as recommended by the manufacturer.

HaloTag® protein [2] = experiment: Binding efficiency to HaloTag protein in lysate (chase with fluorescent HaloTag ligand, SDS-PAGE); conditions: 1 μM, 0-60 min binding; for labeling kinetics / binding efficiency to HaloTag protein in lysate: methotrexate-chloroalkane conjugates, FIG. 3A
Protocol: (§1) a) Binding efficiency to HaloTag® protein in lysate was measured by adding the methotrexate-chloroalkane conjugates to lysate from cells expressing a HaloTag® protein to a final concentration of 1 μM. Following 0-60 mins of binding, the reactions were chased with 1 μM fluorescent HaloTag® ligand. Unbound HaloTag® protein was detected through binding to the fluorescent HaloTag® ligand followed by analysis on SDS-PAGE gel and detection on a fluorescent gel scanner.
as §1, with “adding the dexamethasone-chloroalkane conjugates to” for “adding the methotrexate-chloroalkane conjugates to”, “the fluorescent HaloTag ligand followed” for “the fluorescent HaloTag® ligand followed”

HaloTag® protein [3] = experiment: Binding efficiency to HaloTag protein in cells (chase with fluorescent HaloTag ligand, SDS-PAGE); assay type: cell-based; conditions: 10 μM
Protocol: b) Binding efficiency to HaloTag® protein in cells was measured by adding the methotrexate-chloroalkane conjugates to cells expressing a HaloTag® protein to a final concentration of 10 μM. Following 0-120 mins of binding, the reactions were chased with 5 μM fluorescent HaloTag® ligand. Unbound HaloTag® protein was detected through binding to the fluorescent HaloTag® ligand followed by cell lysis, analysis on a SDS-PAGE gel and detection on a fluorescent gel scanner.
b) Binding efficiency to HaloTag® protein in cells was measured by adding the dexamethasone-chloroalkane conjugates to cells expressing a HaloTag® protein to a final concentration of 10 μM. Following 0-60 mins of binding, the reaction was chased with 5 μM fluorescent HaloTag ligand. Unbound HaloTag® protein was detected through binding to the fluorescent HaloTag® ligand followed by cell lysis, analysis on SDS-PAGE gel and detection on a fluorescent gel scanner.

[4] = target: T2, NanoLuc-DHFR fusion protein (Homo sapiens, UniProt P00374); experiment: Pull-down of NanoLuc-DHFR fusion from living cells onto HALOTAG protein beads; assay type: cell-based; conditions: HEK293 cells, 10 uM conjugate, 2 h binding, 45 min capture, release with 150 μM methotrexate; FIG. 4
T2 construct: expressed in transfected cells; host or cells: HEK293
T2 sequence (P00374 1-187): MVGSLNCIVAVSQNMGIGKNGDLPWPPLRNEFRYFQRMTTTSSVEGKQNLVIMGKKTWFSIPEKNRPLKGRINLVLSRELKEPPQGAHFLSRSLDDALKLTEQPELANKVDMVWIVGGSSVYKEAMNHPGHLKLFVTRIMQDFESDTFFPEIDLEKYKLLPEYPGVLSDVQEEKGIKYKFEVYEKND
Protocol: HEK293 cells were plated and transfected using PEI with plasmid DNA encoding a NANOLUC-DHFR fusion in wells of a 96-well plate. The DNA was diluted 1:50 with a promoterless carrier DNA plasmid (pCI) to a final concentration of 80 ng total DNA per well. Twenty-four hours post-transfection, cells were serum starved for additional 24 hours and then treated with […] 10 uM PBI-4848 or PBI-5015 while control cells were not treated with the conjugated drug. Following equilibration binding of 2 h, the media was removed, and the cells quickly washed with PBS and lysed in detergent-based lysis buffer for 10 min. Cell lysates were then transferred to wells of a 96-well plate containing 0.5 μl settled paramagnetic HALOTAG protein beads and incubated with shaking for 45 min. Following binding, the unbound fraction was removed, the HALOTAG protein paramagnetic beads washed, 150 μM unconjugated methotrexate added, and the captured NANOLUC:DHFR specifically released from the beads by competition with the unconjugated methotrexate for 60 min. The released NANOLUC:DHFR (+PBI-5015 or +PBI-4848) and control samples were detected by NANOGLO luciferase detection reagent.

NanoLuc:GR fusion = target: T3, NanoLuc:GR fusion (Homo sapiens, UniProt P04150); experiment: Pull-down of NanoLuc:GR fusion from live cells onto HaloTag protein beads; assay type: cell-based; conditions: HEK293 cells, 10 μM conjugate, 2 h binding, 45 min capture, release with 150 μM Dexamethasone; FIG. 8
T3 construct: expressed in transfected cells; host or cells: HEK293
T3 sequence (P04150 1-777): T1 sequence (P04150 1-777)
Protocol: HEK293 cells were plated and transfected using PEI with plasmid DNA encoding NanoLuc:GR fusion in wells of a 96-well plate. The DNA was diluted 1:50 with a promoterless carrier DNA plasmid (pCI neo) to a final concentration of 80 ng total DNA per well. Twenty-four hours post-transfection, cells were serum starved for additional 24 hours then incubated with a final concentration of 10 μM PBI-4980 or PBI-4025 while control cells were not treated with the conjugated drug. […] The released NanoLuc:GR (+PBI-4980 or +PBI-4025) and control samples were detected by using the NanoGlo® assay reagent (Promega Corp).

[5] = methotrexate-chloroalkane conjugates, 0-120 min binding, FIG. 3B

C[C@@H]1CC2C3CCC4=CC(=O)C=C[C@]4(C)[C@@]3(F)[C@@H](O)C[C@]2(C)[C@@]1(O)C(=O)NCCOCCOCCOCCOCCC(=O)NCCOCCOCCCCCCCl (some centres unmarked) [PBI-4025]
affinity / binding efficiency to glucocorticoid receptor [1]: highest affinity; also recorded: best binding efficiency; also recorded: higher affinity

CN(Cc1cnc2nc(N)nc(N)c2n1)c1ccc(C(=O)NC(CCC(=O)NCCOCCOCCCCCCCl)C(=O)O)cc1 (centres unmarked) [PBI-4848]
labeling kinetics / binding efficiency to HaloTag protein in lysate (HaloTag® protein [2]): fast labeling kinetics | cell permeability/binding efficiency to HaloTag protein in cells (HaloTag® protein [3]; [5]): best cell permeability/binding efficiency; also recorded: higher cell permeability | pull-down of Nluc:DHFR fusion from living cells [4]: only PBI-5015 efficiently pulled down

C[C@@H]1CC2[C@@H]3CCC4=CC(=O)C=C[C@]4(C)[C@@]3(F)[C@@H](O)C[C@]2(C)[C@@]1(O)C(=O)NCCCCCNC(=O)OCCOCCOCCOC(=O)NCCOCCOCCCCCCCl (some centres unmarked) [PBI-4980, Dexamethasone Carbamate Chloroalkane]
binding kinetics to HaloTag protein in lysate (HaloTag® protein [2]; dexamethasone-chloroalkane conjugates, FIG. 6A): faster binding kinetics | cell permeability/binding efficiency to HaloTag protein in cells (HaloTag® protein [3]; dexamethasone-chloroalkane conjugates, 0-60 min binding, FIG. 6B): best cell permeability/binding efficiency | affinity / binding efficiency to glucocorticoid receptor [1]: best binding efficiency | efficiency of Nluc:GR fusion pull down from live cells (NanoLuc:GR fusion): significantly higher than via PBI-4025

CN(Cc1cnc2nc(N)nc(N)c2n1)c1ccc(C(=O)NC(CCC(=O)NCCCCCNC(=O)OCCOCCOCCOC(=O)NCCOCCOCCCCCCCl)C(=O)O)cc1 (centres unmarked) [PBI-5015]
labeling kinetics / binding efficiency to HaloTag protein in lysate (HaloTag® protein [2]): fast labeling kinetics | cell permeability/binding efficiency to HaloTag protein in cells (HaloTag® protein [3]; [5]): good cell permeability and binding efficiency | pull-down of Nluc:DHFR fusion from living cells [4]: efficiently pulled down
